How the values were obtained:
[1] = test system: norepinephrine receptor sites in thalamic and hypothalamic areas; conditions: cited from earlier work
[2] = test system: dopamine receptor sites in the basal ganglia; conditions: cited from earlier work
[3] = basal ganglia, thalamic and hypothalamic areas; cited from earlier work
[4] = in vivo; cited from earlier work
[5] = Circular dichroism, helical content; assay type: physicochemical; conditions: solvent system in which most membrane polypeptides are strongly helical; FIG. 6
Procedure: Circular Dichroism (CD). Spectra were recorded on an Aviv model 60 DS circular dichroism spectrophotometer at room temperature with a 1 cm by 1 mm cell. The amplitude of the CD signal was calibrated using 10.1% (w/v) solution of d (+)-camphorsulfonic acid (Aldrich) and the wavelength of the CD signal was set using standard absorbance peaks of benzene vapor. Polypeptide ccncentrations were determined in a Cary 210 UV spectrophotomer wwith the absorbance measured at 280 nm. Helical content was estimated using CD signal intensity according to the method of Chen. et al Biochem. 13:[…] (1974). This calculation compares the experimental ellipticity at. 222 nm ( [θ]222) ( [θ]) to a theoretical [θ]222. The theoretical [θ]222 is empirically adjusted to account for differences in polypeptide length and is based on experimental CD data from a series of proteins with known crystal structures. Since both the curve shape and magnitude are important in analysis of a CD spectrum for secondary structure contributions, we also considered qualitatively the contributions to the spectral shapes from different secondary structures using reference curves for poly (L-lysine).

[6] = Radioligand binding assay, polypeptide in DMPC small unilamellar vesicles; conditions: lipid:peptide 147:1, 1 h at 25° C., pH 7.4, FIG. 7
Procedure: Preparation of Small Unilamellar Visicles. Polypeptides were incorporated into DMPC vesicles at lipid:peptide ratio of 147:1 in the followinq manner: polypept ide in HFIP was mixed with dimyrystyroyl-phosphatidylcholine (synthetic) (DMPC) in dry chloroform and dried to a film with a stream of dry nitrogen at 0° C. This residue was then dried further overnight under a vacuum (1×10^-2 torr). The residue was then hydrated in […] and sonicated for a 30-min period under nitrogen at 0° C. The suspension was sedimented for a 30-min at 100,000 q (4° C.) to remove any residual titanium particles and large unilamellar vesicles The supernatant was removed and sedimented once more at 159,000 g for a 45 min period at 4° C. The supernatant in the lower portion was used immediately.
Radioligand Bining Assays. A 0.50 mL volume of 1.00 nM [^3 H]-spiperone(New England specific activity […]) was added to assay tubes which contained 0.5 mL lipid/peptide supernatant, 0.5 mL Tris buffer pH 7.4 and 0.5 mL of cold drug for a final volume of 2.0 mL. […]
Filters were then washed with 6.0 mL of cold 50 mM Tris-HCl buffer, pH 7.40. For detection of radioactivity, filters were placed in 2.0 mL of scintillation fluid (Scintiverse) and incubated for 24 h. The activity of the tritium was determined in a Beckman LS 7500 liquid scintillation counter. […]

## CN(C)CCCN1c2ccccc2Sc2ccc(Cl)cc21 [Chlorpromazine]
[1]
  Blocks NE: Yes++
[2]
  Blocks DA: Yes++

## O=C(CCCN1CCC(O)(c2ccc(Cl)cc2)CC1)c1ccc(F)cc1 [Haloperidol]
[1]
  Blocks NE: Yes+
[2]
  Blocks DA: Yes++++

## COC(=O)[C@H]1[C@H]2C[C@@H]3c4[nH]c5cc(OC)ccc5c4CCN3C[C@H]2C[C@@H](OC(=O)c2cc(OC)c(OC)c(OC)c2)[C@@H]1OC [Reserpine]
[3]
  concentrations of norepinephrine and dopamine: reduces

## CN1CCN(CC/C=C2/c3ccccc3Sc3ccc(S(=O)(=O)N(C)C)cc32)CC1 [Thiothixene]
[1]
  Blocks NE: Yes+++
[2]
  Blocks DA: Yes+

## CN1CCN(C2=Nc3cc(Cl)ccc3Nc3ccccc32)CC1 [clozapine]
[4]
  motor side effects: apparently capable of producing less motor side effects

## Polypeptide III: consensus peptide of the dopamine D2 receptor transmembrane domains I-VII (DYAIFVLYASAWLSFNCPFIVTLNIK)
[5]
  helical structure from CD spectrum: only partially helical
[6]
  binding of [^3 H]-spiperone (receptor-like functional binding): binding to the neuroleptic agent, spiperone, into a stereoselective, concentration-dependent manner

From patent US5508384A, “Polypeptide derived from a popamine receptor, and compositions and methods thereof” (New York University, priority 1993, dated 1996)
